ChEMBL document CHEMBL6121008, “New series of 3-pyridyl-1,3-thiazoles: In vitro and in vivo anti-Trypanosomatidae profile, in vitro and in silico mechanism of action approach” (Eur J Med Chem, 2025)
The source made the active and inactive calls. The calls are words filed in the database; no cut-off is given here.

Experiments:
Trypanosoma cruzi [1] = assay: Antiparasitic activity against trypomastigote form of Trypanosoma cruzi Tulahuen expressing Escherichia coli beta-galactosidase infected in mouse L929 cells assessed as reduction in parasitic growth using CPRG as substrate pretreated with compound for 96 hrs followed by substrate addition and measured after 16 to 20 hrs by Spectrophotometric analysis; format: functional, organism-based
[2] = Cytotoxicity against mouse L929 cells assessed as inhibition of cell viability incubated for 96 hrs by MTT assay; format: toxicity, cell-based
[3] = Selectivity index, ratio of CC50 for mouse L929 cells to IC50 for antiparasitic activity against trypomastigote and amastigote form of Trypanosoma cruzi Tulahuen expressing Escherichia coli beta-galactosidase infected in mouse L929 cells; format: toxicity; conditions: read-out: Selectivity Index
Trypanosoma cruzi [4] = assay: Antiparasitic activity against amastigote form of Trypanosoma cruzi Tulahuen expressing Escherichia coli beta-galactosidase infected in mouse L929 cells assessed as reduction in parasitic growth using CPRG as substrate pretreated with compound for 96 hrs followed by substrate addition and measured after 16 to 20 hrs by Spectrophotometric analysis; format: functional, organism-based
Leishmania amazonensis [5] = assay: Antiparasitic activity against Leishmania amazonensis WHOM/00 LTB 0016 promastigote expressing Escherichia coli beta-galactosidase assessed as reduction in parasitic growth using CPRG as substrate preincubated with compound for 72 hrs followed by substrate addition and measured after 10 mins by Spectrophotometric analysis; format: functional, organism-based
Leishmania infantum [6] = assay: Antiparasitic activity against Leishmania infantum MHOM/MA/67/ITMAP-263 promastigote expressing Escherichia coli beta-galactosidase assessed as reduction in parasitic growth using CPRG as substrate preincubated with compound for 72 hrs followed by substrate addition and measured after 10 mins by Spectrophotometric analysis; format: functional, organism-based
Leishmania amazonensis [7] = assay: Antiparasitic activity against Leishmania amazonensis amastigote expressing Escherichia coli beta-galactosidase infected in mouse RAW264.7 cells assessed as reduction in parasitic growth using CPRG as substrate preincubated with compound for 24 hrs followed by substrate addition and measured after 2 to 6 hrs by Spectrophotometric analysis; format: functional, organism-based; conditions: Leishmania amazonensis, RAW264.7; read-out: IC50
Leishmania infantum [8] = assay: Antiparasitic activity against Leishmania infantum amastigote expressing Escherichia coli beta-galactosidase infected in mouse RAW264.7 cells assessed as reduction in parasitic growth using CPRG as substrate preincubated with compound for 24 hrs followed by substrate addition and measured after 2 to 6 hrs by Spectrophotometric analysis; format: functional, organism-based
[9] = Cytotoxicity against mouse RAW264.7 cells assessed as inhibition of cell viability incubated for 48 hrs by MTT assay; format: toxicity, cell-based
[10] = Selectivity index, ratio of CC50 for mouse RAW264.7 cells to IC50 for antiparasitic activity against Leishmania infantum MHOM/MA/67/ITMAP-263 promastigote expressing Escherichia coli beta-galactosidase; format: toxicity; conditions: read-out: Selectivity Index
[11] = Selectivity index, ratio of CC50 for mouse RAW264.7 cells to IC50 for antiparasitic activity against Leishmania infantum amastigote expressing Escherichia coli beta-galactosidase infected in mouse RAW264.7 cells; format: toxicity; conditions: read-out: Selectivity Index
[12] = Selectivity index, ratio of CC50 for mouse RAW264.7 cells to IC50 for antiparasitic activity against Leishmania amazonensis WHOM/00 LTB 0016 promastigote expressing Escherichia coli beta-galactosidase; format: toxicity; conditions: read-out: Selectivity Index
[13] = Selectivity index, ratio of CC50 for mouse RAW264.7 cells to IC50 for antiparasitic activity against Leishmania amazonensis amastigote expressing Escherichia coli beta-galactosidase infected in mouse RAW264.7 cells; format: toxicity; conditions: read-out: Selectivity Index
[14] = Acute toxicity in male Swiss-Webster mouse infected with Trypanosoma cruzi Y assessed as mortality at 5 to 200 mg/kg, po measured after 48 hrs; format: organism-based; conditions: in vivo, dose 5-200 mg/kg
[15] = Acute toxicity in male Swiss-Webster mouse infected with Trypanosoma cruzi Y assessed as side effects at 5 to 200 mg/kg, po measured after 48 hrs; format: organism-based; conditions: in vivo, dose 5-200 mg/kg
[16] = Acute toxicity in female Swiss-Webster mouse infected with Trypanosoma cruzi Y assessed as mortality at 5 to 200 mg/kg, po measured after 48 hrs; format: organism-based; conditions: in vivo, dose 5-200 mg/kg
[17] = Acute toxicity in female Swiss-Webster mouse infected with Trypanosoma cruzi Y assessed as side effects at 5 to 200 mg/kg, po measured after 48 hrs; format: organism-based; conditions: in vivo, dose 5-200 mg/kg
Trypanosoma cruzi [18] = assay: Antiparasitic activity against Trypanosoma cruzi Y trypomastigotes infected in male Swiss mouse assessed as reduction in parasitemia at 100 mg/kg/day, po pre-infected with parasite followed by compound addition and measured at 1 to 5 days post-infection by microscopic analysis; format: functional, organism-based; conditions: time 1-5 day
[19] = Toxicity in male Swiss mouse infected with Trypanosoma cruzi Y trypomastigotes assessed as mortality at 100 mg/kg/day, po pre-infected with parasite followed by compound addition and measured after 5 to 9 days relative to control; format: organism-based; conditions: in vivo, po, 100 mg/kg, time 5-9 day
Mitochondrial membrane = assay: Induction of mitochondrial membrane depolarization in trypomastigote form of Trypanosoma cruzi Y at IC50 incubated for 24 hrs by Rhodamine 123 staining based flow cytometric analysis; format: cell membranes
Cell membrane = assay: Induction of cell membrane damage in trypomastigote form of Trypanosoma cruzi Y assessed as decrease in red fluorescence intensity incubated for 24 hrs by acridine orange staining based flow cytometric analysis; format: subcellular
Trypanosoma cruzi [20] = assay: Antiparasitic activity against trypomastigote form of Trypanosoma cruzi Y assessed as appearance of twisted bodies by Electron micrographic analysis; format: functional, organism-based
Trypanosoma cruzi [21] = assay: Antiparasitic activity against trypomastigote form of Trypanosoma cruzi Y assessed as presence of bubbles by Electron micrographic analysis; format: functional, organism-based
Trypanosoma cruzi [22] = assay: Antiparasitic activity against trypomastigote form of Trypanosoma cruzi Y assessed as appearance of filamentous structures scattered across the membrane by Electron micrographic analysis; format: functional, organism-based
Trypanosoma cruzi [23] = assay: Antiparasitic activity against trypomastigote form of Trypanosoma cruzi Y assessed as appearance of swollen cells with cytoplasmic content leakage by Electron micrographic analysis; format: functional, organism-based
Trypanosoma cruzi [24] = assay: Antiparasitic activity against trypomastigote form of Trypanosoma cruzi Y assessed as appearance of ruptured cells with cytoplasmic content leakage by Electron micrographic analysis; format: functional, organism-based
RAW264.7 [25] = assay: Immunomodulatory activity in mouse RAW264.7 cells assessed as increase in IL-6 production at 1 to 4 times IC50 incubated for 24 to 144 hrs by flow cytometric analysis; format: functional, cell-based; conditions: time 24-144 hrs
RAW264.7 [26] = assay: Immunomodulatory activity in mouse RAW264.7 cells assessed as decrease in IL-10 production at 1 to 4 times IC50 incubated for 24 to 144 hrs by flow cytometric analysis; format: functional, cell-based; conditions: time 24-144 hrs
RAW264.7 [27] = assay: Immunomodulatory activity in mouse RAW264.7 cells assessed as decrease in TNF production at 1 to 4 times IC50 incubated for 24 to 144 hrs by flow cytometric analysis; format: functional, cell-based; conditions: time 24-144 hrs
[28] = Leishmania amazonensis, WHOM/00 LTB 0016, read-out: IC50
[29] = Leishmania infantum, MHOM/MA/67/ITMAP-263, read-out: IC50
[30] = Leishmania infantum, RAW264.7, read-out: IC50

C/C(=N\N=c1\scc(-c2ccc(C)cc2)n1C)c1cccnc1
IC50 (Trypanosoma cruzi [1]): 4.9 µM | CC50 at 96 h [2]: 23 µM | selectivity ratio [3]: 4.7 | IC50 (Trypanosoma cruzi [4]): 4.9 µM | IC50 (Leishmania amazonensis [5]; [28]): 75.5 µM | IC50 (Leishmania infantum [6]; [29]): 53.7 µM | IC50 (Leishmania amazonensis [7]): 31 µM | IC50 (Leishmania infantum [8]; [30]): 18 µM | CC50 at 48 h [9]: 36.2 µM | selectivity ratio [10]: 0.7 | selectivity ratio [11]: 2 | selectivity ratio [12]: 0.5 | selectivity ratio [13]: 1.2

C/C(=N\N=c1\scc(-c2ccc(F)cc2)n1C)c1cccnc1
IC50 (Trypanosoma cruzi [1]): 3.7 µM | CC50 at 96 h [2]: 15.6 µM | selectivity ratio [3]: 4.2 | IC50 (Trypanosoma cruzi [4]): 3.7 µM | IC50 (Leishmania amazonensis [5]; [28]): 32.7 µM | IC50 (Leishmania infantum [6]; [29]): 21.1 µM | IC50 (Leishmania amazonensis [7]): 17.4 µM | IC50 (Leishmania infantum [8]; [30]): 12.5 µM | CC50 at 48 h [9]: 15 µM | selectivity ratio [10]: 0.7 | selectivity ratio [11]: 1.2 | selectivity ratio [12]: 0.5 | selectivity ratio [13]: 0.9

COc1ccc(-c2cs/c(=N/N=C(\C)c3cccnc3)n2C)cc1
IC50 (Trypanosoma cruzi [1]): 2 µM | CC50 at 96 h [2]: 6.2 µM | selectivity ratio [3]: 3.1 | IC50 (Trypanosoma cruzi [4]): 2 µM | IC50 (Leishmania amazonensis [5]; [28]): 38.7 µM | IC50 (Leishmania infantum [6]; [29]): 20.1 µM | IC50 (Leishmania amazonensis [7]): 14.8 µM | IC50 (Leishmania infantum [8]; [30]): 12.4 µM | CC50 at 48 h [9]: 14.7 µM | selectivity ratio [10]: 0.7 | selectivity ratio [11]: 1.2 | selectivity ratio [12]: 0.4 | selectivity ratio [13]: 1

C/C(=N\N=c1\scc(-c2ccccc2)n1-c1ccccc1)c1cccnc1
IC50 (Trypanosoma cruzi [1]): 5.7 µM | CC50 at 96 h [2]: 11.6 µM | selectivity ratio [3]: 2 | IC50 (Trypanosoma cruzi [4]): 5.7 µM | IC50 (Leishmania amazonensis [5]; [28]): 15.4 µM | IC50 (Leishmania infantum [6]; [29]): 31 µM | IC50 (Leishmania amazonensis [7]): 13.5 µM | IC50 (Leishmania infantum [8]; [30]): 8.9 µM | CC50 at 48 h [9]: 29.4 µM | selectivity ratio [10]: 0.9 | selectivity ratio [11]: 3.3 | selectivity ratio [12]: 1.9 | selectivity ratio [13]: 2.2

C/C(=N\Nc1nc(-c2ccccc2)cs1)c1cccnc1
IC50 (Trypanosoma cruzi [1]): 0.4 µM | CC50 at 96 h [2]: 212 µM | selectivity ratio [3]: 531 | Activity [14]: Non-toxic | Activity [15]: Non-toxic | Activity [16]: Non-toxic | Activity [17]: Non-toxic | Activity (Trypanosoma cruzi [18]): inactive | Activity [19]: Toxic | IC50 (Trypanosoma cruzi [4]): 0.4 µM | Activity (Mitochondrial membrane): Active | Activity (Cell membrane): Dose-dependent-effect | Activity (Trypanosoma cruzi [20]): Dose-dependent-effect | Activity (Trypanosoma cruzi [21]): Dose-dependent-effect | Activity (Trypanosoma cruzi [22]): Dose-dependent-effect | Activity (Trypanosoma cruzi [23]): Dose-dependent-effect | Activity (Trypanosoma cruzi [24]): Dose-dependent-effect | Activity (RAW264.7 [25]): Active | Activity (RAW264.7 [26]): Active | Activity (RAW264.7 [27]): Active | IC50 (Leishmania amazonensis [5]; [28]): 128 µM | IC50 (Leishmania infantum [6]; [29]): 5.4 µM | IC50 (Leishmania amazonensis [7]): 9.9 µM | IC50 (Leishmania infantum [8]; [30]): 103 µM | CC50 at 48 h [9]: 18.3 µM | selectivity ratio [10]: 3.4 | selectivity ratio [11]: 0.2 | selectivity ratio [12]: 0.1 | selectivity ratio [13]: 1.9

COc1ccc(-c2cs/c(=N/N=C(\C)c3cccnc3)[nH]2)cc1
IC50 (Trypanosoma cruzi [1]): 0.3 µM | CC50 at 96 h [2]: 19.4 µM | selectivity ratio [3]: 64.7 | Activity [14]: Non-toxic | Activity [15]: Non-toxic | Activity [16]: Non-toxic | Activity [17]: Non-toxic | Activity (Trypanosoma cruzi [18]): inactive | Activity [19]: Toxic | IC50 (Trypanosoma cruzi [4]): 0.3 µM | Activity (Mitochondrial membrane): Active | Activity (Cell membrane): Dose-dependent-effect | Activity (Trypanosoma cruzi [20]): Dose-dependent-effect | Activity (Trypanosoma cruzi [21]): Dose-dependent-effect | Activity (Trypanosoma cruzi [22]): Dose-dependent-effect | Activity (Trypanosoma cruzi [23]): Dose-dependent-effect | Activity (Trypanosoma cruzi [24]): Dose-dependent-effect | Activity (RAW264.7 [25]): Active | Activity (RAW264.7 [26]): Active | Activity (RAW264.7 [27]): inactive | IC50 (Leishmania amazonensis [5]): Not_active | IC50 (Leishmania infantum [6]; [29]): 174 µM | IC50 (Leishmania amazonensis [7]): 7.7 µM | IC50 (Leishmania infantum [8]; [30]): 92.6 µM | CC50 at 48 h [9]: 16.6 µM | selectivity ratio [10]: 0.1 | selectivity ratio [11]: 0.2 | selectivity ratio [13]: 2.2

C/C(=N\N=c1/[nH]c(-c2ccc(C)cc2)cs1)c1cccnc1
IC50 (Trypanosoma cruzi [1]): 3.9 µM | CC50 at 96 h [2]: 293 µM | selectivity ratio [3]: 75.1 | IC50 (Trypanosoma cruzi [4]): 3.9 µM | Activity (Trypanosoma cruzi [20]): Dose-dependent-effect | IC50 (Leishmania amazonensis [5]; [28]): > 324 µM | IC50 (Leishmania infantum [6]): Not_active | IC50 (Leishmania amazonensis [7]): 33.1 µM | IC50 (Leishmania infantum [8]; raw264.7): Not_active | CC50 at 48 h [9]: 25 µM | selectivity ratio [12]: < 0.1 | selectivity ratio [13]: 0.8
